Non-standard residues stand in square brackets, D forms with d. Residues, ends and D or L forms follow the SMILES beside them. *: point of attachment. 5FAM = O=C1OC2(c3ccc(O)cc3Oc3cc(O)ccc32)c2ccc(C(=O)*)cc21; MethylRed = CN(C)c1ccc(/N=N/c2ccccc2C(=O)*)cc1; AEEA = NCCOCCOCC(=O)O
Experiments:
[1] = tested on: FAP+ CAFs from NSCLC patient samples; assay: Probe cleavage on cancer associated fibroblasts (CAFs); assay type: cell-based, human; conditions: FAP3 5 µM, confluent CAF monolayer in 96 well plate, DPBS, read 480/530 nm for one hour, n=3 run in triplicate
Experimental: CAFs were isolated from NSCLC patient samples as previously described ([28]). Briefly, tissue samples were minced with forceps and incubated for an hour in prewarmed RPMI media (Gibco) containing collagenase IV [2 mg/ml] (Sigma) and DNase [0.2 mg/ml] (Sigma). Samples were spun at 350 g for 5 minutes and red blood cells were lysed from samples using RBC lysis buffer (BioLegend) in 10 ml for 10 minutes. Following a further spin at 350 g for 5 minutes, cells were seeded in culture flasks in DMEM containing 10% FCS, 1% Penicillin-Streptomycin, 1% L-Glutamine and 10% Insulin Transferrin Selenium (ITS). 24 hours after seeding, non-adherent cells were washed from the flasks. Cells were maintained by standard cell culture methods and by passage 2, the predominant cell type was CAFs, assessed by flow cytometry markers and morphology. CAFs between passage 4-9 were used to assess FAP probes and confirmed to be FAP^hi by flow cytometry.
CAFs were seeded into 96 well plates in a 100 µl media (complete DMEM as described above) at a density of 1x10^5 cells/ml to form a confluent monolayer within 24 hours. […] Immediately after adding imaging probes, the plate was transferred to the prewarmed spectrophotometer as above and read at 480/530 nm for one hour.

[2] = tested on: NSCLC patient tissue samples; assay: Fluorescence intensity and lifetime imaging (FLIM) of ex vivo NSCLC tissue; parameters: species or system human; conditions: FAP3 5 µM, ex vivo NSCLC samples N=5, imaged at 10-minute intervals to 40 minutes, 488 nm excitation
Experimental: For imaging solutions, varying concentrations of rhFAP were prepared in blackened eppendorfs and FAP3 to a final concentration of 5µM added and imaged as below. For biological specimens, NSCLC patient tissue samples from surgical resection were used fresh or snap frozen and stored at -80°C until required. Small fragments (approx. 4mm^3) incubated at 37°C in a 96 well plate in phenyl-red free DMEM (Gibco) containing 10% FCS, 1% Penicillin-streptomycin and 1% L-Glutamine. For the tissue fragments to be used as inhibitor controls, we added Talabostat at a dilution of 1:1000. Samples were then imaged using a clinically approved fluorescence lifetime imaging system used in conjunction with an imaging fibre ([30]) providing a 400 x 400 µm field of view. The imaging system incorporates a pulsed supercontinuum laser source, in this case tuned for excitation at 488 nm, with an achromatic confocal laser scanning system and a time-resolved spectrometer. This spectrometer contains a 512 channel single photon avalanche diode (SPAD) sensor ([31]) allowing for the rapid collection of time resolved spectral fluorescence lifetime data. Fluorescence intensity and lifetime images were collected using an image resolution of 160 x 160 pixels over a 498 – 570 nm spectral range with an exposure time of 13 µs per pixel. This led to an imaging rate of ~3 frames per second.
For each condition, the tumour samples were imaged using a fibre placed at the surface of the tissue (baseline), and then again at 10-minute intervals following the additions of equimolar concentrations of probe +/- Inhibitor. For imaging solutions, the fibre was held within the solution and imaged every 5 minutes. Each condition and time-point data for both fluorescence intensity and lifetime were collected. Imaging sequences had non-relevant frames removed, and the entire field of view was analysed. Analysis was undertaken using a bespoke software suite utilising the rapid lifetime determination (RLD) method ([32]). […]

rhPREP = biological target: T1, rhPREP (Homo sapiens, UniProt P48147); assay: Probe cleavage by recombinant human PREP (fluorescence plate assay, MALDI confirmation); assay type: biochemical
T1 construct: purchased R&D Systems
T1 sequence (P48147 1-710): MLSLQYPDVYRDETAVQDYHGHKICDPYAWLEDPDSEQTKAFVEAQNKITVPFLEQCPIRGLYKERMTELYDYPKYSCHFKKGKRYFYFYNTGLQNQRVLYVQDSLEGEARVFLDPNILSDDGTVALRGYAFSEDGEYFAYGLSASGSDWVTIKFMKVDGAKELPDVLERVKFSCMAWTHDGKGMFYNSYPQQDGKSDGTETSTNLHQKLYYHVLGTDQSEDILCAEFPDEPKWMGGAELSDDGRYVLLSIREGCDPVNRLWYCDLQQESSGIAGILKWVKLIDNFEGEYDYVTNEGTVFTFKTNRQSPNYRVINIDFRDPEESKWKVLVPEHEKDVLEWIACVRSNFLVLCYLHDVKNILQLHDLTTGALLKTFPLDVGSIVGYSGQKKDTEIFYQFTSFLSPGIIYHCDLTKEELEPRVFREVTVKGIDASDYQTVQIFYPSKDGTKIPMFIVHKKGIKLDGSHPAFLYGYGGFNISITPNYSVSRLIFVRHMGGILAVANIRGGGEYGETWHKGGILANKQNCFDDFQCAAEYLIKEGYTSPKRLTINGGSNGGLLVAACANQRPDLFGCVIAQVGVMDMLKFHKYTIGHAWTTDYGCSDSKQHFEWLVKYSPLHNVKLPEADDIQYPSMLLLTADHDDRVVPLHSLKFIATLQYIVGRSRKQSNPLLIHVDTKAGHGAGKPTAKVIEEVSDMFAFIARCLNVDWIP

MMP 9 = MMP 9 (Homo sapiens, UniProt P14780); assay: Probe assessment against recombinant MMP panel; assay type: biochemical; conditions: recombinant enzyme, n=2 run in triplicate
rhFAP [3] = biological target: T2, rhFAP (Homo sapiens, UniProt Q12884); assay: Enzyme kinetics with varying concentrations of substrate FAP3 in presence of rhFAP; assay type: biochemical; conditions: increasing concentrations of substrate FAP3 with rhFAP; value (SE)
T2 construct: purchased R&D Systems
T2 sequence (Q12884 26-760 limits assumed): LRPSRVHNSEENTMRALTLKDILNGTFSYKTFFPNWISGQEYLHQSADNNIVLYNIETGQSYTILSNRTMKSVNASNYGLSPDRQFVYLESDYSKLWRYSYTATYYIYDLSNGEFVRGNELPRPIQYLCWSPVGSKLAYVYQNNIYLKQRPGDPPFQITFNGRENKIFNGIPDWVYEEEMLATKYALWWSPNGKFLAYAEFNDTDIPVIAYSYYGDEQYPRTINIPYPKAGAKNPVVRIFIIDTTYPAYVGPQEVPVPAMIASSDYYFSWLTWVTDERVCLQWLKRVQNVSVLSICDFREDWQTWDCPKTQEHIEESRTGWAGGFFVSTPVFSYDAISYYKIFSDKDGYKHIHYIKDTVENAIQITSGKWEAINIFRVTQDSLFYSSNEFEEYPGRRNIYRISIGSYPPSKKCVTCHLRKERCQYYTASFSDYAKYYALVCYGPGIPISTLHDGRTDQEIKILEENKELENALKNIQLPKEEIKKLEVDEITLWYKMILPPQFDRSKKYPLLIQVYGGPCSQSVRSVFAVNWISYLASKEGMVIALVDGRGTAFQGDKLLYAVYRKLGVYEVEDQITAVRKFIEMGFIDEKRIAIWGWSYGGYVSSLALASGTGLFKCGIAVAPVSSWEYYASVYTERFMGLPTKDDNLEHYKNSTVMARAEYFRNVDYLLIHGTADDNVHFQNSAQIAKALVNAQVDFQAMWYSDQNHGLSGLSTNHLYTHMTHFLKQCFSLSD
Experimental: A calibration curve was determined using the FAP3 concentration (C-terminal cleavage fragment) against RFU to calculate the enzyme kinetic data and is shown below.

[4] = Probe stability in activated neutrophil lysate
Experimental: Assays were undertaken in triplicate in blackened 384 well plates on ice prior to spectral reads.
Neutrophils were isolated from peripheral blood of healthy volunteers by discontinuous percoll gradients, as previously described ([29]). Cells were resuspended in PBS (at 10 million cells/ml) and stimulated with 1 µM calcium ionophore, then lysed with 1% Triton-X-100. Lysate was used at 1:1 dilution for experiments, replacing recombinant enzymes in the assay as described above, with PBS as the buffer.
MALDI spectra were acquired on a Bruker Ultraflextreme MALDI-TOF MS. Neutrophil lysate experiment samples were prepared by plating 1 µl of the sample with 1 µl of the matrix solution sinapic acid (10 mg/mL) in H2O/CH3CN/TFA (70/30/0.1).

rhFAP [5] = biological target: T2, rhFAP; assay: Probe cleavage by recombinant human FAP (fluorescence plate assay, MALDI confirmation); assay type: biochemical

MMP 9, sequence (P14780 94-707): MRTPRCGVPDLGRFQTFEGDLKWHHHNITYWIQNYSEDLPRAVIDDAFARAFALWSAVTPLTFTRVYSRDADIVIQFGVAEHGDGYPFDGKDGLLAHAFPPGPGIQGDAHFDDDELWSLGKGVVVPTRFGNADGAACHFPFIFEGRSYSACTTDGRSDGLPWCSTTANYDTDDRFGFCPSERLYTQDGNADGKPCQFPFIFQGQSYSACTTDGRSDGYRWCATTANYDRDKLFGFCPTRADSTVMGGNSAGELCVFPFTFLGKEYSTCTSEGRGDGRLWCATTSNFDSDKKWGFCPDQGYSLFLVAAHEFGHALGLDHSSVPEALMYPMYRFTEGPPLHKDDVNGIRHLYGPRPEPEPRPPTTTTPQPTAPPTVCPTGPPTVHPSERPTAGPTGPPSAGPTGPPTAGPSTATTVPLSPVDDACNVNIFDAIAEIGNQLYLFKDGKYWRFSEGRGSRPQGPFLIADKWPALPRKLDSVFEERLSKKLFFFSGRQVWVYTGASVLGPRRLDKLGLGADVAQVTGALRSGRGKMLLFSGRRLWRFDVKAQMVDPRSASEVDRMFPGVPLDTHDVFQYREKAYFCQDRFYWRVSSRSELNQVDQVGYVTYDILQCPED

In the case of CC(C)[C@H](NC(=O)[C@@H](N)CCCCNC(=O)c1ccccc1/N=N/c1ccc(N(C)C)cc1)C(=O)N[C@H](CO)C(=O)N1CCC[C@H]1C(=O)N[C@@H](CC(N)=O)C(=O)N[C@@H](CCC(N)=O)C(=O)NCC(=O)N[C@@H](CCCCNC(=O)c1ccc2c(c1)C(=O)OC21c2ccc(O)cc2Oc2cc(O)ccc21)C(=O)NCCOCCOCC(=O)N[C@H](CCCCN)C(=O)NCCOCCOCC(=O)N[C@H](CCCCN)C(=O)NCCOCCOCC(=O)N[C@H](CCCCN)C(N)=O [FAP3] (H-K(MethylRed)V[dS]PNQGK(5FAM)[AEEA][dK][AEEA][dK][AEEA][dK]-NH2), the “Cleavage by FAP+ CAFs (fluorescence)” value [1] is reported as “cleaved”, the “Change in fluorescence intensity in NSCLC tissue” value ([2]; 37°C) is reported as “increase in fluorescence intensity” and the “Change in fluorescence lifetime in NSCLC tissue” value ([2]; RLD method) is reported as “change to a longer lifetime signature”. For the same molecule, the “Cleavage by rhPREP by MALDI” value (rhPREP; MALDI-TOF read-out) was “no cleavage”, the “Cleavage by rhPREP (fluorescence signal)” value (rhPREP; probe 5 µM, rhPREP 0.1 µg/ml, TRIS buffer pH 7.5, read 480/530 nm, n=3 run in triplicate) was “no rhPREP cleavage” and the “Activity with MMP 9” value (MMP 9) was “no activity”. For the same molecule, the Vmax (rhFAP [3]) was 109.5 RFU/min, the “Stability in activated neutrophil lysate (MALDI-TOF)” value ([4]; activated human neutrophil lysate, MALDI-TOF read-out, sinapic acid matrix) was “remained intact” and the “Stability in activated neutrophil lysate (fluorescence)” value ([4]; human neutrophils 10 million cells/ml, 1 µM calcium ionophore, lysed with 1% Triton-X-100, lysate at 1:1 dilution, PBS, fluorescence 480/530 nm, n=2 run in triplicate) was “stable”. For the same molecule, the “Cleavage of FAP3 by rhFAP confirmed by MALDI” value (rhFAP [5]; MALDI-TOF read-out, cleavage post proline) was “confirming the cleavage” and the “FAP specificity (over PREP)” value (rhFAP [5]; probe 5 µM, rhFAP compared with rhPREP, each 0.1 µg/ml) was “demonstrated FAP specificity”.
